In the experiment the target is Induced myeloid leukemia cell differentiation protein Mcl-1 (Homo sapiens, UniProt Q07820). Description: Fluorescence Polarization Anisotropy Competition Assay: Compound affinity was measured using a fluorescence polarization anisotropy competition assay. Anisotropy measurements were carried out in 384-well, black, flat-bottom plates (Greiner Bio-one, Monroe, N.C., USA).
Induced myeloid leukemia cell differentiation protein Mcl-1, sequence (Q07820 whole entry): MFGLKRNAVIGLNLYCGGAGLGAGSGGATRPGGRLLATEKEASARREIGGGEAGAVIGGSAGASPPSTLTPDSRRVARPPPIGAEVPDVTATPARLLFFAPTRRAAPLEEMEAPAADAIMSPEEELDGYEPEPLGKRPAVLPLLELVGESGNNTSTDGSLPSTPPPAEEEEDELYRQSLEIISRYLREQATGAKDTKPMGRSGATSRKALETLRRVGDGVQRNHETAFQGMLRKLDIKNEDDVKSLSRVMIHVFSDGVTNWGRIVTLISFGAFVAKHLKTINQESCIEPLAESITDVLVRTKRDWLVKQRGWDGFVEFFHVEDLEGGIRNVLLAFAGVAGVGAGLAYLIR
Consider `Cc1cc(OCCCc2c(C(=O)NCc3cc(C(=O)O)cc(Cl)n3)[nH]c3c(-c4c(C)nn(C)c4C)cccc23)cc(C)c1Cl`, for which the Ki was < 0.05 µM.

For the molecule `Cc1cc(OCCCc2c3n(c4c(-c5c(C)nn(C)c5C)c(Cl)ccc24)[C@H](C)CN(c2ccc(C(=O)O)c4ncccc24)C3=O)cc(C)c1Cl`, the Ki was < 0.05 µM. In the case of `Cc1cc(OCCCc2c(C(=O)N[C@@H]3CCC[C@@H](C(=O)O)C3)[nH]c3c(-c4c(C)nn(C)c4C)cccc23)cc(C)c1Cl` it was < 0.05 µM; in that of `Cc1cc(OCCCc2c(C(=O)N(C)c3ccc(C(=O)O)cc3)[nH]c3c(-c4c(C)nn(C)c4C)c(Cl)ccc23)cc(C)c1Cl`, < 0.05 µM; in that of `Cc1cc(OCCCc2c3n(c4c(-c5c(C)nn(C)c5C)c(Cl)ccc24)CCCN(c2ccc(C(=O)O)c4ncccc24)C3=O)cc(C)c1Cl`, < 0.05 µM.

Take `Cc1cc(OCCCc2c(C(=O)N[C@H]3CC[C@@H](C(=O)O)CC3)[nH]c3c(-c4c(C)nn(C)c4C)cccc23)cc(C)c1Cl`: the Ki was < 0.05 µM. On to `Cc1cc(OCCCc2c3n(c4c(-c5c(C)nn(C)c5C)c(Cl)ccc24)CCCN(c2ccc(C(=O)O)c4c2ccn4C)C3=O)cc(C)c1Cl`, for which the Ki is < 0.05 µM.

`Cc1cc(OCCCc2c3n(c4c(-c5c(C)nn(C)c5C)cccc24)CCCN(c2ccnc4c(C(=O)O)cccc24)C3=O)cc(C)c1Cl`: the Ki was < 0.05 µM. As for `Cc1cc(OCCCc2c(C(=O)N3CCN(c4ccc(C(=O)O)cc4)CC3)n(CCN3CCOCC3)c3c(-c4c(C)nn(C)c4C)c(Cl)ccc23)cc(C)c1Cl`, the Ki is < 0.05 µM.

(Values after ChEMBL document CHEMBL5727507, “Substituted indole Mcl-1 inhibitors” (2020).)
